Reference: publication PMC3402541, “Guanidylation and Tail Effects in Cationic Antimicrobial Lipopeptoids” (PLoS ONE, 2012)
Values after ≈ are worked out from the molar mass of the structure shown. Where a SMILES comes first, the peptide text is derived from it. [ ]: non-standard residue; d: D form. The star is where a group is joined. Palmitoyl = CCCCCCCCCCCCCCCC(=O)*; Nlys = NCCCCNCC(=O)O

What was measured:
S.aureus ATCC 29213 = format: cell-based, Staphylococcus aureus; conditions: ATCC 29213, 24 h
Summary of the method: (§1)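 CLSI macrobroth dilution with doubling dilutions in cation-adjusted Mueller-Hinton broth in glass tubes, inoculum about 5 × 10^5 CFU/mL. Incubation 24 hr at 37°C in ambient air before MIC reading. Single determinations, no replication.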

MRSA ATCC 33592 = format: cell-based, methicillin-resistant S. aureus; conditions: ATCC 33592, 24 h
Summary of the method: as §1

MSSE 81388 CANWARD 2008 = format: cell-based, methicillin-susceptible S. epidermidis; conditions: 24 h
Summary of the method: as §1

MRSE CAN-ICU 61589 = format: cell-based, methicillin-resistant S. epidermidis; conditions: CAN-ICU 61589, 24 h
Summary of the method: as §1

E. faecalis ATCC 29212 = format: cell-based, Enterococcus faecalis; conditions: ATCC 29212, 24 h
Summary of the method: as §1

S.pneumoniae ATCC 49619 = format: cell-based, Streptococcus pneumoniae; conditions: ATCC 49619, 24 h
Summary of the method: as §1

P.aeruginosa ATCC 27853 = format: cell-based, Pseudomonas aeruginosa; conditions: ATCC 27853, 24 h
Summary of the method: as §1

[1] = tested on: P.aeruginosa CAN-ICU 62308; format: cell-based, Pseudomonas aeruginosa; conditions: CAN-ICU 62308, 24 h
Summary of the method: as §1

[2] = tested on: S. maltophilia CAN-ICU 62584; format: cell-based, Stenotrophomonas maltophilia; conditions: CAN-ICU 62584, 24 h
Summary of the method: as §1

[3] = tested on: A. baumannii CAN-ICU 63169; format: cell-based, Acinetobacter baumannii; conditions: CAN-ICU 63169, 24 h
Summary of the method: as §1

K.pneumoniae ATCC 13883 = format: cell-based, Klebsiella pneumoniae; conditions: ATCC 13883, 24 h
Summary of the method: as §1

ovine erythrocytes = assay: Haemolytic assay; format: cell-based, sheep; conditions: ovine erythrocytes in Tris buffered saline, 30 minutes, absorbance of supernatant at 540 nm
Summary of the method: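 Washed sheep erythrocytes in Tris-buffered saline exposed to compound (50 μg/mL–1 mg/mL; final 4.08 x 10^8 cells/mL) for 30 min. After centrifugation, supernatant absorbance at 540 nm gave % haemolysis; 0.5% ammonium chloride as positive control.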

E.coli ATCC 25922 = format: cell-based, Escherichia coli; conditions: ATCC 25922, 24 h
Summary of the method: as §1

E.coli CAN-ICU 61714 = format: cell-based, Escherichia coli; conditions: CAN-ICU 61714, 24 h
Summary of the method: as §1

E.coli CAN-ICU 63074 = format: cell-based, Escherichia coli; conditions: CAN-ICU 63074, 24 h
Summary of the method: as §1

[4] = tested on: all three strains of E. coli; format: cell-based, Escherichia coli; conditions: 24 h
Summary of the method: (§2)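 Twofold dilution series in CAMHB; inoculum ≈5 x 10^5 CFU/mL checked by colony counts; 24 hr, 37°C, ambient air; MIC by visual reading of tubes.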

E. faecium ATCC 27270 = format: cell-based; conditions: ATCC 27270, 24 h
Summary of the method: as §1

S. epidermidis = format: cell-based; conditions: 24 h
Summary of the method: as §2

| SMILES | MIC S.aureus (S.aureus ATCC 29213) | MIC S.aureus in the presence of 4% bovine serum albumin (S.aureus ATCC 29213) | MIC MRSA (MRSA ATCC 33592) | MIC MRSA in the presence of 4% bovine serum albumin (MRSA ATCC 33592) | MIC MSSE (MSSE 81388 CANWARD 2008) | MIC MSSE in the presence of 4% bovine serum albumin (MSSE 81388 CANWARD 2008) | MIC MRSE (MRSE CAN-ICU 61589) | MIC MRSE in the presence of 4% bovine serum albumin (MRSE CAN-ICU 61589) | MIC E. faecalis (E. faecalis ATCC 29212) | MIC E. faecalis in the presence of 4% bovine serum albumin (E. faecalis ATCC 29212) | MIC S.pneumoniae (S.pneumoniae ATCC 49619) | MIC S.pneumoniae in the presence of 4% bovine serum albumin (S.pneumoniae ATCC 49619) | MIC P.aeruginosa (P.aeruginosa ATCC 27853) | MIC P.aeruginosa in the presence of 4% bovine serum albumin (P.aeruginosa ATCC 27853) | MIC P.aeruginosa [1] | MIC P.aeruginosa in the presence of 4% bovine serum albumin [1] | MIC S. maltophilia [2] | MIC S. maltophilia in the presence of 4% bovine serum albumin [2] | MIC A. baumannii [3] | MIC A. baumannii in the presence of 4% bovine serum albumin [3] | also measured |
| --- | --- | --- | --- | --- | --- | --- | --- | --- | --- | --- | --- | --- | --- | --- | --- | --- | --- | --- | --- | --- | --- |
| CCCCCCCCCCCCCCCC(=O)N(CCCCN)CC(=O)NCC(=O)N(CCCCN)CC(N)=O [C16-NlysGNlys] (Palmitoyl-[Nlys]-Gly-[Nlys]-NH2) | 8 µg/mL (≈ 14.1 µM) | 512 µg/mL | 16 µg/mL (≈ 28.1 µM) | 512 µg/mL | 8 µg/mL (≈ 14.1 µM) | 512 µg/mL | 16 µg/mL (≈ 28.1 µM) | 512 µg/mL | 16 µg/mL (≈ 28.1 µM) | 512 µg/mL | 128 µg/mL (≈ 225 µM) | 512 µg/mL | 64 µg/mL (≈ 113 µM) | >512 µg/mL | 128 µg/mL (≈ 225 µM) | >512 µg/mL | 128 µg/mL (≈ 225 µM) | >512 µg/mL | 128 µg/mL (≈ 225 µM) | >512 µg/mL | MIC K.pneumoniae (K.pneumoniae ATCC 13883): 64 µg/mL (≈ 113 µM); MIC K.pneumoniae in the presence of 4% bovine serum albumin (K.pneumoniae ATCC 13883): >512 µg/mL; Percent haemolysis at 100µg/mL of compound (ovine erythrocytes): 56.03%; MIC E.coli (E.coli ATCC 25922): 16 µg/mL (≈ 28.1 µM); MIC E.coli in the presence of 4% bovine serum albumin (E.coli ATCC 25922): 512 µg/mL; MIC E.coli (E.coli CAN-ICU 61714): 16 µg/mL (≈ 28.1 µM); MIC E.coli in the presence of 4% bovine serum albumin (E.coli CAN-ICU 61714): 512 µg/mL; MIC E.coli (E.coli CAN-ICU 63074): 16 µg/mL (≈ 28.1 µM); MIC E.coli in the presence of 4% bovine serum albumin (E.coli CAN-ICU 63074): 512 µg/mL; MIC against all three strains of E. coli [4]: 16 µg/mL; MIC E. faecium (E. faecium ATCC 27270): 16 µg/mL (≈ 28.1 µM); MIC E. faecium in the presence of 4% bovine serum albumin (E. faecium ATCC 27270): 512 µg/mL |
| CCCCCCCCCCCCCCCC(=O)N(CCCCNC(=N)N)CC(=O)NCC(=O)N(CCCCNC(=N)N)CC(N)=O [C16-NhargGNharg] | 8 µg/mL (≈ 12.3 µM) | 512 µg/mL | 8 µg/mL (≈ 12.3 µM) | 512 µg/mL | 8 µg/mL (≈ 12.3 µM) | 512 µg/mL | 16 µg/mL (≈ 24.5 µM) | 512 µg/mL | 16 µg/mL (≈ 24.5 µM) | 512 µg/mL | 128 µg/mL (≈ 196 µM) | 512 µg/mL | 64 µg/mL (≈ 98 µM) | >512 µg/mL | 64 µg/mL (≈ 98 µM) | >512 µg/mL | 64 µg/mL (≈ 98 µM) | >512 µg/mL | 128 µg/mL (≈ 196 µM) | >512 µg/mL | MIC K.pneumoniae (K.pneumoniae ATCC 13883): 64 µg/mL (≈ 98 µM); MIC K.pneumoniae in the presence of 4% bovine serum albumin (K.pneumoniae ATCC 13883): 512 µg/mL; Percent haemolysis at 100µg/mL of compound (ovine erythrocytes): 61.06%; MIC E.coli (E.coli ATCC 25922): 16 µg/mL (≈ 24.5 µM); MIC E.coli in the presence of 4% bovine serum albumin (E.coli ATCC 25922): 512 µg/mL; MIC E.coli (E.coli CAN-ICU 61714): 16 µg/mL (≈ 24.5 µM); MIC E.coli in the presence of 4% bovine serum albumin (E.coli CAN-ICU 61714): 512 µg/mL; MIC E.coli (E.coli CAN-ICU 63074): 16 µg/mL (≈ 24.5 µM); MIC E.coli in the presence of 4% bovine serum albumin (E.coli CAN-ICU 63074): 512 µg/mL; MIC against all three strains of E. coli [4]: 16 µg/mL; MIC E. faecium (E. faecium ATCC 27270): 16 µg/mL (≈ 24.5 µM); MIC E. faecium in the presence of 4% bovine serum albumin (E. faecium ATCC 27270): 512 µg/mL |
| CCCCCCCCCCCCCCCCCCCC(=O)N(CCCCN)CC(=O)N(CCCCN)CC(=O)N(CCCCN)CC(N)=O [C20-NlysNlysNlys] | 16 µg/mL (≈ 23 µM) | 128 µg/mL | 16 µg/mL (≈ 23 µM) | 256 µg/mL | 8 µg/mL (≈ 11.5 µM) | 128 µg/mL | 8 µg/mL (≈ 11.5 µM) | 128 µg/mL | 16 µg/mL (≈ 23 µM) | 256 µg/mL | 64 µg/mL (≈ 91.9 µM) | 512 µg/mL | 128 µg/mL (≈ 184 µM) | 512 µg/mL | 64 µg/mL (≈ 91.9 µM) | 512 µg/mL | 64 µg/mL (≈ 91.9 µM) | 512 µg/mL | 64 µg/mL (≈ 91.9 µM) | 512 µg/mL | MIC K.pneumoniae (K.pneumoniae ATCC 13883): 64 µg/mL (≈ 91.9 µM); MIC K.pneumoniae in the presence of 4% bovine serum albumin (K.pneumoniae ATCC 13883): 256 µg/mL; Percent haemolysis at 100µg/mL of compound (ovine erythrocytes): 68.29%; MIC E.coli (E.coli ATCC 25922): 32 µg/mL (≈ 46 µM); MIC E.coli in the presence of 4% bovine serum albumin (E.coli ATCC 25922): 256 µg/mL; MIC E.coli (E.coli CAN-ICU 61714): 32 µg/mL (≈ 46 µM); MIC E.coli in the presence of 4% bovine serum albumin (E.coli CAN-ICU 61714): 256 µg/mL; MIC E.coli (E.coli CAN-ICU 63074): 32 µg/mL (≈ 46 µM); MIC E.coli in the presence of 4% bovine serum albumin (E.coli CAN-ICU 63074): 256 µg/mL; MIC E. faecium (E. faecium ATCC 27270): 16 µg/mL (≈ 23 µM); MIC E. faecium in the presence of 4% bovine serum albumin (E. faecium ATCC 27270): 256 µg/mL; MIC against S. epidermidis with BSA (S. epidermidis): 128 µg/mL |
